From patent US9718854B2, “Selective glycosidase inhibitors and uses thereof” (priority 2011, dated 2017)
Like-named read-outs stand apart in the source and are kept apart here.

How the values were obtained:
O-GlcNAcase = O-GlcNAcase (Rattus norvegicus (Rat), UniProt Q8VIJ5); test: Cell-based ELISA of O-GlcNAcylated protein (RL-2 antibody) for cellular O-GlcNAcase inhibition
Text: Assay for Determination of Cellular Activity for Compounds that Inhibit O-GlcNAcase Activity
Inhibition of O-GlcNAcase, which removes O-GlcNAc from cellular proteins, results in an increase in the level of O-GlcNAcylated protein in cells. An increase in O-GlcNAcylated protein can be measured by an antibody, such as RL-2, that binds to O-GlcNAcylated protein. The amount of O-GlcNAcylated protein:RL2 antibody interaction can be measured by enzyme linked immunosorbant assay (ELISA) procedures.
Compounds to be tested were dissolved in DMSO, either 2 or 10 mM stock solution, and then diluted with DMSO and water in a two-step process using a Tecan workstation. […] If desired, the total protein concentration of samples was determined using 20 μL of the sample using the BCA method. […]
The amount of O-GlcNAcylated protein, as detected by the ELISA assay, was plotted for each concentration of test compound using standard curve fitting algorithms for sigmoidal dose response curves. The values for a four parameter logistic curve fit of the data were determined, with the inflection point of the curve being the potency value for the test compound.

human O-GlcNAcase = human O-GlcNAcase (Homo sapiens (Human), UniProt O60502); test: biochemical; conditions: purified human O-GlcNAcase, 4-methylumbelliferyl N-acetyl-β-D-glucosaminide substrate, pH 7.0, Cheng-Prusoff; read-out: Fluorescence-based hOGA Ki
human O-GlcNAcase, sequence (O60502 whole entry): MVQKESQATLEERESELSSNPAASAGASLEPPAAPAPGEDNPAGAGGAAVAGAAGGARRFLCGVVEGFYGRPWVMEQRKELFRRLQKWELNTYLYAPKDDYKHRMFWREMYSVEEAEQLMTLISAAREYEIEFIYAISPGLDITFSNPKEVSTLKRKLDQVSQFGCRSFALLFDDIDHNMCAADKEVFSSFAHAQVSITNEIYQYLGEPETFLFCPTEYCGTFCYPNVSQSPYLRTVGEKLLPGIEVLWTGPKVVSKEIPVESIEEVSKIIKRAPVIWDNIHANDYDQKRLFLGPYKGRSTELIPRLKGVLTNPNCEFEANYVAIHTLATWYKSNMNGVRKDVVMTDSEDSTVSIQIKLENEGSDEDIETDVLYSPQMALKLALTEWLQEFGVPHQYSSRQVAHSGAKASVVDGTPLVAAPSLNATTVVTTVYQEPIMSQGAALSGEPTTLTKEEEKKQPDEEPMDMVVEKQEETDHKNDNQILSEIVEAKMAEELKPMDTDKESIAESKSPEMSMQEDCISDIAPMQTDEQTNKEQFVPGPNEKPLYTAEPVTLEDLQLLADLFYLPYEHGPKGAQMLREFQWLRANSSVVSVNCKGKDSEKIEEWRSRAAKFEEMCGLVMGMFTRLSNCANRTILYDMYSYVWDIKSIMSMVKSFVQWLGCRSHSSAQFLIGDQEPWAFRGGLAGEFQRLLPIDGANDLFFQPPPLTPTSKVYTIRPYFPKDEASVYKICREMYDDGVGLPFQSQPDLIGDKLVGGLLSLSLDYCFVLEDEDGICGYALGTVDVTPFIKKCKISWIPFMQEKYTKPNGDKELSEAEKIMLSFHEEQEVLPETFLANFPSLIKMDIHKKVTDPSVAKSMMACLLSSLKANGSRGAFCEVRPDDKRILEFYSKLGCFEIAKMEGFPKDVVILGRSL
Description: Assay for Determination of KI Values for Inhibition of O-GlcNAcase Activity
Experimental Procedure for Kinetic Analyses:
Enzymatic reactions were carried out in a reaction containing 50 mM NaH2PO4, 100 mM NaCl and 0.1% BSA (pH 7.0) using 2 mM 4-Methylumbelliferyl N-acetyl-β-D-glucosaminide dihydrate (Sigma M2133) dissolved in ddH2O, as a substrate. The amount of purified human O-GlcNAcase enzyme used in the reaction was 0.7 nM. Test compound of varying concentrations was added to the enzyme prior to initiation of the reaction. The reaction was performed at room temperature in a 96-well plate and was initiated with the addition of substrate. […] The slope of product production was determined for each concentration of compound tested and plotted, using standard curve fitting algorithms for sigmoidal dose response curves. The values for a four parameter logistic curve fit of the data were determined.

O-GlcNAcase, sequence (Q8VIJ5 whole entry): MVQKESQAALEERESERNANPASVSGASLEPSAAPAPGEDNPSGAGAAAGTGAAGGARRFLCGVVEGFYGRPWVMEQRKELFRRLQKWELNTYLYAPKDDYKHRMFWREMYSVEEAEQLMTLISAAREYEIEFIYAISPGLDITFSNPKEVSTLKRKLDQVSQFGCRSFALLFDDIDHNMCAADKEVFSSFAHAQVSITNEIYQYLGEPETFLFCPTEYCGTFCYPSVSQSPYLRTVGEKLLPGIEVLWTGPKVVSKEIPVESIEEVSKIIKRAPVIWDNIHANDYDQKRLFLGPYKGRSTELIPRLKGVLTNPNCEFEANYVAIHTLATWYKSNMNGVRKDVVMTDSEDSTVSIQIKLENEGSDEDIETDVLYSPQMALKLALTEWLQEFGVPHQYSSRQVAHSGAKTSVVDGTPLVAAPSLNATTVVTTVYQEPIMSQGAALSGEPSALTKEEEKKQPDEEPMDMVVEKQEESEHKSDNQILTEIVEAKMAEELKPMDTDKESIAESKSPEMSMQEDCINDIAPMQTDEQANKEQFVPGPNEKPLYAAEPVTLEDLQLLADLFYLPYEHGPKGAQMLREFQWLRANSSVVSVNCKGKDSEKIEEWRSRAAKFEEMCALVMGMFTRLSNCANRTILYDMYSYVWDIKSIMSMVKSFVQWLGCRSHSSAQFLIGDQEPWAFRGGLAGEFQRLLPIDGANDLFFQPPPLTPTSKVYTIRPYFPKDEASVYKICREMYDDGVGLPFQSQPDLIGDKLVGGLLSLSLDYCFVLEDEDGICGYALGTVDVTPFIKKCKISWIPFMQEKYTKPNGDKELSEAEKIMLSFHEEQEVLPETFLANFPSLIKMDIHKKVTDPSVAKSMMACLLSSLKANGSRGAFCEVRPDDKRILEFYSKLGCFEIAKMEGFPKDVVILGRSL

Structure (SMILES): CNC1=N[C@@H]2[C@@H](O)[C@H](O)[C@@H](COC(=O)N(C)C)O[C@@H]2S1 [Example 9, ((3aR,5R,6S,7R,7aR)-6,7-dihydroxy-2-(methylamino)-5,6,7,7a-tetrahydro-3aH-pyrano[3,2-d]thiazol-5-yl)methyl dimethylcarbamate]
- EC50 (O-GlcNAcase; rat PC-12 cells, 24 h treatment, O-GlcNAcylated protein detected with RL-2 antibody, read-out: Cell-based ELISA EC50): 212 nM

Structure (SMILES): CNC1=N[C@@H]2[C@@H](O)[C@H](O)[C@@H](CNC3CCCC3)O[C@@H]2S1 [Example 37, (3aR,5R,6S,7R,7aR)-5-((cyclopentylamino)methyl)-2-(methylamino)-5,6,7,7a-tetrahydro-3aH-pyrano[3,2-d]thiazole-6,7-diol]
- EC50 (O-GlcNAcase): 3.7 nM

Structure (SMILES): CNC1=N[C@@H]2[C@@H](O)[C@H](O)[C@@H](CNCC#N)O[C@@H]2S1 [Example 53, 2-((((3aR,5R,6S,7R,7aR)-6,7-dihydroxy-2-(methylamino)-5,6,7,7a-tetrahydro-3aH-pyrano[3,2-d]thiazol-5-yl)methyl)amino)acetonitrile]
- Ki (human O-GlcNAcase): 5.4 nM
